How the values were obtained:
Assay in all cases: relative viability (nuclei count vs DMSO), 5 days (fraction); higher = more cells survive
XMD8-85 + Bortezomib = compound: CN1CCN(CC1)C2=CC(=C(C=C2)NC3=NC=C4C(=N3)N(C5=CC=CC=C5C(=O)N4C)C)OC [XMD8-85] + CC(C)C[C@H](NC(=O)[C@H](Cc1ccccc1)NC(=O)c1cnccn1)B(O)O [Bortezomib] (partner 0.002 µM)
Outline: (§1)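 For relative viability, nuclei counts in treated wells were divided by those in vehicle wells. Lung cancer cell lines had been pin-tool dosed in 1536-well plates the day after seeding and cultured for 5 days, then fixed and stained in one step (final 0.05% Triton X-100, 1% formaldehyde, 1 ug/ml Hoechst) and imaged at 4×. Doses were one drug alone or a fixed anchor-drug dose plus five library-drug doses (not always all listed) in √10 steps, and values are duplicate-plate medians.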

XMD8-85 + Navitoclax = compound: CN1CCN(CC1)C2=CC(=C(C=C2)NC3=NC=C4C(=N3)N(C5=CC=CC=C5C(=O)N4C)C)OC [XMD8-85] + CC1(C)CCC(c2ccc(Cl)cc2)=C(CN2CCN(c3ccc(C(=O)NS(=O)(=O)c4ccc(N[C@H](CCN5CCOCC5)CSc5ccccc5)c(S(=O)(=O)C(F)(F)F)c4)cc3)CC2)C1 [Navitoclax] (partner 0.5 µM)
Outline: as §1

XMD8-85 + Pemetrexed = compound: CN1CCN(CC1)C2=CC(=C(C=C2)NC3=NC=C4C(=N3)N(C5=CC=CC=C5C(=O)N4C)C)OC [XMD8-85] + Nc1nc2[nH]cc(CCc3ccc(C(=O)N[C@@H](CCC(=O)O)C(=O)O)cc3)c2c(=O)[nH]1 [Pemetrexed] (partner 0.2 µM)
Outline: as §1

4EGI-1 + Olaparib = compound: O=C(O)C(Cc1ccccc1[N+](=O)[O-])=NNc1nc(-c2ccc(Cl)c(Cl)c2)cs1 (mixture of isomers) [4EGI-1] + O=C(c1cc(Cc2n[nH]c(=O)c3ccccc23)ccc1F)N1CCN(C(=O)C2CC2)CC1 [Olaparib] (partner 8 µM)
Outline: as §1

NCI-H1792
relative viability (XMD8-85 + Bortezomib; first compound 0.08 µM): 0.985 | relative viability (XMD8-85 + Bortezomib; first compound 0.253 µM): 0.776 | relative viability (XMD8-85 + Bortezomib; first compound 2.53 µM): 0.929 | relative viability (XMD8-85 + Bortezomib; first compound 8 µM): 0.838 | relative viability (XMD8-85 + Navitoclax; first compound 0.08 µM): 0.488 | relative viability (XMD8-85 + Navitoclax; first compound 0.253 µM): 0.398 | relative viability (XMD8-85 + Navitoclax; first compound 2.53 µM): 0.482 | relative viability (XMD8-85 + Navitoclax; first compound 8 µM): 0.49 | relative viability (XMD8-85 + Pemetrexed; first compound 0.253 µM): 0.439 | relative viability (XMD8-85 + Pemetrexed; first compound 0.8 µM): 0.889 | relative viability (XMD8-85 + Pemetrexed; first compound 2.53 µM): 0.924 | relative viability (XMD8-85 + Pemetrexed; first compound 8 µM): 0.818 | relative viability (4EGI-1 + Olaparib; first compound 0.5 µM): 0.412 | relative viability (4EGI-1 + Olaparib; first compound 1.581 µM): 0.496 | relative viability (4EGI-1 + Olaparib; first compound 5 µM): 0.359 | relative viability (4EGI-1 + Olaparib; first compound 15.81 µM): 0.36 | relative viability (4EGI-1 + Olaparib; first compound 50 µM): 0.165
